Test results reported in ChEMBL document CHEMBL1201862, “PubChem BioAssay data set” (2004).
Where “and” joins values, the source holds several entries; their conditions need not be identical. Equal entries are not always repeated.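 Briefly, cells in 96-well plates were exposed to five compound concentrations for 48 h, and endpoints were estimated by linear interpolation. The concentration for 50% growth inhibition is given as GI50.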 Calls of active or inactive are those of the source. Cut-off read from the data, not from the text of the source: active = GI50 up to about 1.1 µM and inactive = higher.

Assays:
Assay in all cases: NCI-60 cell line screen, 48 h
786-0 = system: 786-0
A549 = system: A549
ACHN = system: ACHN
BT-549 = system: BT-549
CAKI-1 = system: CAKI-1
COLO 205 = system: COLO 205
DU-145 = system: DU-145
EKVX = system: EKVX
HCT-116 = system: HCT-116
HCT-15 = system: HCT-15
HL-60 = system: HL-60
HOP-62 = system: HOP-62
HT-29 = system: HT-29
KM12 = system: KM12
LOX IMVI = system: LOX IMVI
M14 = system: M14
MCF7 = system: MCF7
MDA-MB-231 = system: MDA-MB-231
MDA-MB-435 = system: MDA-MB-435
MDA-N = system: MDA-N
Malme-3M = system: Malme-3M
NCI-H226 = system: NCI-H226
NCI-H23 = system: NCI-H23
NCI-H460 = system: NCI-H460
NCI-H522 = system: NCI-H522
NCI/ADR-RES = system: NCI/ADR-RES
OVCAR-3 = system: OVCAR-3
OVCAR-4 = system: OVCAR-4
OVCAR-5 = system: OVCAR-5
OVCAR-8 = system: OVCAR-8
PC-3 = system: PC-3
RPMI-8226 = system: RPMI-8226
RXF 393 = system: RXF 393
SF-268 = system: SF-268
SF-295 = system: SF-295
SF-539 = system: SF-539
SK-MEL-28 = system: SK-MEL-28
SK-MEL-2 = system: SK-MEL-2
SN12C = system: SN12C
SNB-19 = system: SNB-19
SR = system: SR
SW-620 = system: SW-620
T47D = system: T47D
TK-10 = system: TK-10
U-251 = system: U-251
UACC-257 = system: UACC-257
UO-31 = system: UO-31
A498 = system: A498
CCRF-CEM = system: CCRF-CEM
HCC 2998 = system: HCC 2998
HOP-92 = system: HOP-92
IGROV-1 = system: IGROV-1
K562 = system: K562
MOLT-4 = system: MOLT-4
SK-MEL-5 = system: SK-MEL-5
SK-OV-3 = system: SK-OV-3
UACC-62 = system: UACC-62
SNB-75 = system: SNB-75
Hs-578T = system: Hs-578T

Cc1ccc(N(C)S(=O)(=O)c2ccccc2[N+](=O)[O-])cc1
GI50 (786-0): > 100 µM (inactive) | GI50 (A549): 39.6 µM (inactive) | GI50 (ACHN): 58.9 µM (inactive) | GI50 (BT-549): 23.3 µM (inactive) | GI50 (CAKI-1): 48.2 µM (inactive) | GI50 (COLO 205): 57.3 µM (inactive) | GI50 (DU-145): 98.4 µM (inactive) | GI50 (EKVX): 55.1 µM (inactive) | GI50 (HCT-116): 39.1 µM (inactive) | GI50 (HCT-15): 46.7 µM | GI50 (HL-60): > 100 µM (inactive) | GI50 (HOP-62): 49.1 µM (inactive) | GI50 (HT-29): 34 µM (inactive) | GI50 (KM12): 29.4 µM (inactive) | GI50 (LOX IMVI): 32.4 µM (inactive) | GI50 (M14): 21.6 µM (inactive) | GI50 (MCF7): 49 µM (inactive) | GI50 (MDA-MB-231): 41 µM (inactive) | GI50 (MDA-MB-435): 29.2 µM (inactive) | GI50 (MDA-N): 34.5 µM (inactive) | GI50 (Malme-3M): 33.2 µM (inactive) | GI50 (NCI-H226): 27.3 µM (inactive) | GI50 (NCI-H23): 40.4 µM (inactive) | GI50 (NCI-H460): 32.5 µM (inactive) | GI50 (NCI-H522): 24.6 µM (inactive) | GI50 (NCI/ADR-RES): 37.5 µM (inactive) | GI50 (OVCAR-3): 44 µM (inactive) | GI50 (OVCAR-4): 41.7 µM (inactive) | GI50 (OVCAR-5): 65.5 µM (inactive) | GI50 (OVCAR-8): 48.6 µM (inactive) | GI50 (PC-3): 19 µM (inactive) | GI50 (RPMI-8226): 33.9 µM (inactive) | GI50 (RXF 393): 34.9 µM (inactive) | GI50 (SF-268): 48.4 µM (inactive) | GI50 (SF-295): 52.1 µM (inactive) | GI50 (SF-539): 40.1 µM (inactive) | GI50 (SK-MEL-28): 44.9 µM (inactive) | GI50 (SK-MEL-2): 30.8 µM (inactive) | GI50 (SN12C): 83 µM (inactive) | GI50 (SNB-19): 64.9 µM (inactive) | GI50 (SR): 47.4 µM (inactive) | GI50 (SW-620): 58.3 µM (inactive) | GI50 (T47D): 77.4 µM (inactive) | GI50 (TK-10): > 100 µM (inactive) | GI50 (U-251): 49.2 µM (inactive) | GI50 (UACC-257): 41.7 µM (inactive) | GI50 (UO-31): 40.5 µM (inactive)

CC(C)(C)NC(=O)/C(=C\Sc1ccccc1)c1ccc2c(c1)OCO2
GI50 (786-0): 31.9 µM (inactive) | GI50 (A498): 20.4 µM (inactive) | GI50 (A549): 31 µM (inactive) | GI50 (ACHN): 36.9 µM (inactive) | GI50 (BT-549): 75.9 µM (inactive) | GI50 (CAKI-1): 38.4 µM (inactive) | GI50 (CCRF-CEM): 28.5 µM (inactive) | GI50 (COLO 205): 22.4 µM (inactive) | GI50 (DU-145): 37.2 µM (inactive) | GI50 (EKVX): 28.4 µM (inactive) | GI50 (HCC 2998): 37.3 µM (inactive) | GI50 (HCT-116): 24.3 µM (inactive) | GI50 (HCT-15): 30.8 µM | GI50 (HL-60): 18.7 µM (inactive) | GI50 (HOP-62): 44.3 µM (inactive) | GI50 (HOP-92): 15.5 µM (inactive) | GI50 (HT-29): 17.9 µM (inactive) | GI50 (IGROV-1): 29.2 µM (inactive) | GI50 (K562): 43.6 µM (inactive) | GI50 (KM12): 32.4 µM (inactive) | GI50 (LOX IMVI): 16.1 µM (inactive) | GI50 (M14): 21.8 µM (inactive) | GI50 (MCF7): 26.1 µM (inactive) | GI50 (MDA-MB-231): 21.8 µM (inactive) | GI50 (MDA-MB-435): 22.2 µM (inactive) | GI50 (MDA-N): 22.8 µM (inactive) | GI50 (MOLT-4): 21.9 µM (inactive) | GI50 (NCI-H23): 35.3 µM (inactive) | GI50 (NCI-H522): 17.9 µM (inactive) | GI50 (NCI/ADR-RES): 24.2 µM (inactive) | GI50 (OVCAR-3): 30.8 µM (inactive) | GI50 (OVCAR-4): 51.3 µM (inactive) | GI50 (OVCAR-5): 30.6 µM (inactive) | GI50 (OVCAR-8): 32 µM (inactive) | GI50 (PC-3): 22.5 µM (inactive) | GI50 (RPMI-8226): 22.8 µM (inactive) | GI50 (SF-268): 16.2 µM (inactive) | GI50 (SF-295): 39.1 µM (inactive) | GI50 (SF-539): 35.3 µM (inactive) | GI50 (SK-MEL-28): 49 µM (inactive) | GI50 (SK-MEL-2): 15.5 µM (inactive) | GI50 (SK-MEL-5): 17.6 µM (inactive) | GI50 (SK-OV-3): 52.5 µM (inactive) | GI50 (SN12C): 26.7 µM (inactive) | GI50 (SNB-19): 38.7 µM (inactive) | GI50 (SR): 25.8 µM (inactive) | GI50 (SW-620): 37.8 µM (inactive) | GI50 (T47D): 26 µM (inactive) | GI50 (TK-10): 44.8 µM (inactive) | GI50 (U-251): 30 µM (inactive) | GI50 (UACC-257): 25.4 µM (inactive) | GI50 (UACC-62): 19.8 µM (inactive) | GI50 (UO-31): 26.9 µM (inactive)

Cc1nc2c(=S)[nH]ncc2[nH]1
GI50 (786-0): > 100 µM (inactive) | GI50 (A498): > 100 µM (inactive) | GI50 (A549): > 100 µM (inactive) | GI50 (ACHN): > 100 µM (inactive) | GI50 (BT-549): > 100 µM (inactive) | GI50 (CAKI-1): > 100 µM (inactive) | GI50 (CCRF-CEM): > 100 µM (inactive) | GI50 (COLO 205): > 100 µM (inactive) | GI50 (EKVX): > 100 µM (inactive) | GI50 (HCC 2998): > 100 µM (inactive) | GI50 (HCT-116): > 100 µM (inactive) | GI50 (HCT-15): > 100 µM | GI50 (HL-60): > 100 µM (inactive) | GI50 (HOP-62): > 100 µM (inactive) | GI50 (HOP-92): > 100 µM (inactive) | GI50 (HT-29): > 100 µM (inactive) | GI50 (IGROV-1): > 100 µM (inactive) | GI50 (K562): > 100 µM (inactive) | GI50 (KM12): > 100 µM (inactive) | GI50 (LOX IMVI): > 100 µM (inactive) | GI50 (M14): > 100 µM (inactive) | GI50 (MCF7): > 100 µM (inactive) | GI50 (MDA-MB-231): > 100 µM (inactive) | GI50 (MDA-MB-435): > 100 µM (inactive) | GI50 (MDA-N): > 100 µM (inactive) | GI50 (MOLT-4): > 10 µM (inactive) | GI50 (Malme-3M): 94.8 µM (inactive) | GI50 (NCI-H226): > 100 µM (inactive) | GI50 (NCI-H23): > 100 µM (inactive) | GI50 (NCI-H522): > 100 µM (inactive) | GI50 (NCI/ADR-RES): > 100 µM (inactive) | GI50 (OVCAR-3): > 100 µM (inactive) | GI50 (OVCAR-4): > 100 µM (inactive) | GI50 (OVCAR-5): > 100 µM (inactive) | GI50 (OVCAR-8): > 100 µM (inactive) | GI50 (PC-3): > 100 µM (inactive) | GI50 (RPMI-8226): > 100 µM (inactive) | GI50 (SF-295): > 100 µM (inactive) | GI50 (SF-539): > 100 µM (inactive) | GI50 (SK-MEL-28): > 100 µM (inactive) | GI50 (SK-MEL-2): > 100 µM (inactive) | GI50 (SK-MEL-5): > 100 µM (inactive) | GI50 (SK-OV-3): > 100 µM (inactive) | GI50 (SN12C): > 100 µM (inactive) | GI50 (SNB-19): > 100 µM (inactive) | GI50 (SNB-75): > 100 µM (inactive) | GI50 (SW-620): > 100 µM (inactive) | GI50 (T47D): > 100 µM (inactive) | GI50 (TK-10): > 100 µM (inactive) | GI50 (U-251): > 100 µM (inactive) | GI50 (UACC-257): > 100 µM (inactive) | GI50 (UACC-62): > 100 µM (inactive) | GI50 (UO-31): > 100 µM (inactive)

CCCCCCCCCCCCCCCCOP(=O)(O)OP(=O)(O)OCC1OC(n2ccc(N)nc2=O)C(O)C1O (stereo not drawn)
GI50 (BT-549): > 93.3 µM (inactive) | GI50 (COLO 205): > 100 µM (inactive) | GI50 (DU-145): > 100 µM (inactive) and 58.2 µM (inactive) | GI50 (EKVX): > 100 µM (inactive) | GI50 (HCT-15): > 100 µM and 98.2 µM | GI50 (HOP-92): > 100 µM (inactive) and 57.1 µM (inactive) | GI50 (HT-29): 51.3 µM (inactive) | GI50 (Hs-578T): > 91.6 µM (inactive) | GI50 (IGROV-1): > 100 µM (inactive) and > 89.7 µM (inactive) | GI50 (KM12): > 100 µM (inactive) | GI50 (MDA-MB-231): > 76.2 µM (inactive) | GI50 (MDA-MB-435): > 100 µM (inactive) | GI50 (MDA-N): > 100 µM (inactive) | GI50 (NCI-H226): 89.3 µM (inactive) | GI50 (OVCAR-3): > 100 µM (inactive) | GI50 (OVCAR-4): > 100 µM (inactive) | GI50 (OVCAR-5): > 100 µM (inactive) and > 61.9 µM (inactive) | GI50 (PC-3): 54.6 µM (inactive) | GI50 (RPMI-8226): > 100 µM (inactive) | GI50 (RXF 393): 58.2 µM (inactive) | GI50 (SF-268): > 100 µM (inactive) | GI50 (SF-539): > 91 µM (inactive) | GI50 (SK-MEL-28): > 100 µM (inactive) | GI50 (SK-MEL-2): > 100 µM (inactive) | GI50 (SK-MEL-5): > 100 µM (inactive) and 53 µM (inactive) | GI50 (SW-620): > 100 µM (inactive) and > 95.7 µM (inactive) | GI50 (T47D): > 74 µM (inactive) | GI50 (TK-10): > 100 µM (inactive) | GI50 (U-251): > 100 µM (inactive) and > 76.7 µM (inactive) | GI50 (UACC-257): > 100 µM (inactive) and > 96.6 µM (inactive)
